# Test results published in patent US9975896B2, “Inhibitors of transcription factors and uses thereof” (Dana-Farber Cancer Institute, Inc., priority 2013, dated 2018).
# Numbering of substitutions follows the chain as printed.
# Tests used:
# [1] = biological target: T1, TRIM24(PHD Bromo.) (Homo sapiens, UniProt O15164); assay: BromoScan selectivity panel (Kd); format: binding
# T1 construct: TRIM24(PHD Bromo.)
# T1 sequence (O15164 824-1006 limits assumed): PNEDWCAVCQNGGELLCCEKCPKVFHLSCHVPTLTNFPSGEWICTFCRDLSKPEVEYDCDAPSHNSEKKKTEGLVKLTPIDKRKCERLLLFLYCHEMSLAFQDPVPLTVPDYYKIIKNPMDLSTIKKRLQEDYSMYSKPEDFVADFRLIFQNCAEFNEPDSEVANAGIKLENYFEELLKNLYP
# [2] = biological target: T2, BRD9 (Homo sapiens, UniProt Q9H8M2); assay: BromoScan selectivity panel (Kd); format: binding
# T2 sequence (Q9H8M2 130-250 limits assumed): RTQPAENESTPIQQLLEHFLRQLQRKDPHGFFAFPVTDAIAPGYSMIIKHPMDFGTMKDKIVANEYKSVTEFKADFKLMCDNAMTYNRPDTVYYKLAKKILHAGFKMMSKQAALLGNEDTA
# [3] = biological target: BRDT(2) (Homo sapiens, UniProt Q58F21); assay: BromoScan selectivity panel (Kd); format: binding
# [4] = biological target: T3, TRIM33(PHD Bromo.) (Homo sapiens, UniProt Q9UPN9); assay: BromoScan selectivity panel (Kd); format: binding
# T3 construct: TRIM33(PHD, Bromo.); TRIM33(PHD Bromo.); fused on or other part: The vendor panel's detection tag or display handle
# T3 sequence (Q9UPN9 1-1127): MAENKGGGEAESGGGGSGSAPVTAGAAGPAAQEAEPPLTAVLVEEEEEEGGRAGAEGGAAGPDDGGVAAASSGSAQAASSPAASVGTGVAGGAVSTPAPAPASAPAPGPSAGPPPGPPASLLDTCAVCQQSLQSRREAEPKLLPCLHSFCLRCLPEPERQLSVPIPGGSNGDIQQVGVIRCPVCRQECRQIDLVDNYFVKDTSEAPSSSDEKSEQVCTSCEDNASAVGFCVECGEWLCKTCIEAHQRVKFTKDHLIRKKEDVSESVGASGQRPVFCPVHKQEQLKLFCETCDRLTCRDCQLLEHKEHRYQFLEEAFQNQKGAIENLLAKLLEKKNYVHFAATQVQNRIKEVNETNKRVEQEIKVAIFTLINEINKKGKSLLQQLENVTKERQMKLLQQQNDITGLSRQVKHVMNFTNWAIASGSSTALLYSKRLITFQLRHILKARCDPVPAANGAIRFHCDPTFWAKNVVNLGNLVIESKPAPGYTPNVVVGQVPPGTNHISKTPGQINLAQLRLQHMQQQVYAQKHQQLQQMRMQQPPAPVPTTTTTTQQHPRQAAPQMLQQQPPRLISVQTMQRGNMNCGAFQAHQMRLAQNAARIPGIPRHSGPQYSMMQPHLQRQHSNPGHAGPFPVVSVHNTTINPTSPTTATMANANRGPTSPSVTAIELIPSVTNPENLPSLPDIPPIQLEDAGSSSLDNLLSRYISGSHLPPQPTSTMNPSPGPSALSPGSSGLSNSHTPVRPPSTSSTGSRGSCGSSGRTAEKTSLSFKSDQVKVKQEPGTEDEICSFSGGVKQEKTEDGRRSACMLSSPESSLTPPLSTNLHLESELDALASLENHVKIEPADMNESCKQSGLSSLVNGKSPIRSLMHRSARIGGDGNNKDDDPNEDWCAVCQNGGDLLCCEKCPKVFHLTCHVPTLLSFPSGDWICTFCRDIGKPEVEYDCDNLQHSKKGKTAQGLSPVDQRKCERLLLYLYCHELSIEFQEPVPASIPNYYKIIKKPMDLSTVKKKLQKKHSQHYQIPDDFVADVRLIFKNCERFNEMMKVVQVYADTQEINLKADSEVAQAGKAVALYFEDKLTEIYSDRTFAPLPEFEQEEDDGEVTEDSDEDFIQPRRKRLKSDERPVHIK
# [5] = biological target: T4, BRD1 (Homo sapiens, UniProt O95696); assay: BromoScan selectivity panel (Kd); format: binding
# T4 sequence (O95696 556-688 limits assumed): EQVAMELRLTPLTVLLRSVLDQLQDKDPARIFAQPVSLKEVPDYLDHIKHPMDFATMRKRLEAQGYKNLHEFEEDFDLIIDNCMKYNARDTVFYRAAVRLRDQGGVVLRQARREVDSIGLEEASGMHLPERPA
# [6] = biological target: T5, WDR9(2) (Homo sapiens, UniProt Q9NSI6); assay: BromoScan selectivity panel (Kd); format: binding
# T5 construct: WDR9(2)
# T5 sequence (Q9NSI6 1313-1418 limits assumed): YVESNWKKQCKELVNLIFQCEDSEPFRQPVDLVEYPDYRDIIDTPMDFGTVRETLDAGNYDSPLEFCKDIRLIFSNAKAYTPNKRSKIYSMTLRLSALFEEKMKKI
# [7] = biological target: T6, BRPF1 (Homo sapiens, UniProt P55201); assay: BromoScan selectivity panel (Kd); format: binding
# T6 sequence (P55201 626-740 limits assumed): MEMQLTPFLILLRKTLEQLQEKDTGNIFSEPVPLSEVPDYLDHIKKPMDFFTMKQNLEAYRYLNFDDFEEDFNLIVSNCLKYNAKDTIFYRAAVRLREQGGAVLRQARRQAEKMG
# [8] = biological target: T7, EP300 (Homo sapiens, UniProt Q09472); assay: BromoScan selectivity panel (Kd); format: binding
# T7 sequence (Q09472 1040-1161 limits assumed): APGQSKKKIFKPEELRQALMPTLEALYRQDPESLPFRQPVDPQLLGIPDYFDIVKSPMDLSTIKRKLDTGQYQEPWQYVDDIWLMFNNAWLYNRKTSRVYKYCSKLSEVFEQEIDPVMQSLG
# [9] = biological target: T8, ATAD2A (Homo sapiens, UniProt Q6PL18); assay: BromoScan selectivity panel (Kd); format: binding
# T8 sequence (Q6PL18 981-1108 limits assumed): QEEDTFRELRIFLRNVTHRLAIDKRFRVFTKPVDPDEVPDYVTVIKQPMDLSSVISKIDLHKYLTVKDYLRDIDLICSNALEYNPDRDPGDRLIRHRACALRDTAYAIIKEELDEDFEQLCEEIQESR
# [10] = biological target: T9, BAZ2A (Homo sapiens, UniProt Q9UIF9); assay: BromoScan selectivity panel (Kd); format: binding
# T9 sequence (Q9UIF9 1796-1899 limits assumed): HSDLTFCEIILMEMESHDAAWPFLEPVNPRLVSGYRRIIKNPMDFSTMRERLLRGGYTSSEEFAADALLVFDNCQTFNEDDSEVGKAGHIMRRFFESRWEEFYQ
# [11] = biological target: T10, ATAD2B (Homo sapiens, UniProt Q9ULI0); assay: BromoScan selectivity panel (Kd); format: binding
# T10 sequence (Q9ULI0 953-1085 limits assumed): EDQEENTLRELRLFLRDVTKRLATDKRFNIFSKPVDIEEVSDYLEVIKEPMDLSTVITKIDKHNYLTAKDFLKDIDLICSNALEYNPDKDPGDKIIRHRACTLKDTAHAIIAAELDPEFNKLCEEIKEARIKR
# [12] = biological target: T11, CBP (Homo sapiens, UniProt Q92793); assay: BromoScan selectivity panel (Kd)
# Target sequence in this assay (Q92793 1081-1197 limits assumed): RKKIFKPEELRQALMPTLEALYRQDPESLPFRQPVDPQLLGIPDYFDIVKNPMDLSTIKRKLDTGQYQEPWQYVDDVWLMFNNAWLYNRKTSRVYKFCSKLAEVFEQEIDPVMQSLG
# [13] = biological target: T12, BRDT(1) (Homo sapiens, UniProt Q58F21); assay: BromoScan selectivity panel (Kd); format: binding
# T12 construct: the bromodomain-containing protein is BRDT(1)
# [14] = biological target: T13, BAZ2B (Homo sapiens, UniProt Q9UIF8); assay: BromoScan selectivity panel (Kd); format: binding
# T13 sequence (Q9UIF8 2054-2168 limits assumed): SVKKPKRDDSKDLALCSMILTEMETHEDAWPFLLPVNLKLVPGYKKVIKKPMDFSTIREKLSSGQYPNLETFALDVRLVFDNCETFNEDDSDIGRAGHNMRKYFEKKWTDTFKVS
# [15] = biological target: T14, BRPF3 (Homo sapiens, UniProt Q9ULD4); assay: BromoScan selectivity panel (Kd); format: binding
# T14 sequence (Q9ULD4 589-693 limits assumed): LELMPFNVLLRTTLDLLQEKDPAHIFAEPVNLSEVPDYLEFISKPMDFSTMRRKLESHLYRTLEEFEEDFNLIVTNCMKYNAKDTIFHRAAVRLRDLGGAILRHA
# [16] = biological target: T15, TAF1(2) (Homo sapiens, UniProt P21675); assay: BromoScan selectivity panel (Kd); format: binding
# T15 construct: TAF1(2)
# T15 sequence (P21675 1519-1628 limits assumed): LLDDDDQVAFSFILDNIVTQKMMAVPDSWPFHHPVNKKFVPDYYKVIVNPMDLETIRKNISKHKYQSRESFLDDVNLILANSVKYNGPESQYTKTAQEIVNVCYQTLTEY
# [17] = biological target: T16, TAF1L(2) (Homo sapiens, UniProt Q8IZX4); assay: BromoScan selectivity panel (Kd); format: binding
# T16 construct: TAF1L(2)
# T16 sequence (Q8IZX4 1517-1626 limits assumed): T15 sequence (P21675 1519-1628 limits assumed) with V46M, M51V, V102I, L107I
# [18] = biological target: FALZ (Homo sapiens, UniProt Q12830); assay: BromoScan selectivity panel (Kd); format: binding
# [19] = system: BRD4-dependent Nut-Midline Carcinoma line 797; assay: Cell viability (ATPlite) in BRD4 dependant cell line 797; conditions: Homo sapiens, read-out: 797--EC50 (μM)
# [20] = biological target: BRD4 (Homo sapiens, UniProt O60885); assay: In vitro AlphaScreen protein binding assay (competition with biotinylated JQ1)
# Protocol: (§1) Assays were performed with minor modifications from the manufacturer's protocol (PerkinElmer, USA). All reagents were diluted in 50 mM HEPES, 150 mM NaCl, 0.1% w/v BSA, and 0.01% w/v Tween® 20 at pH 7.5 and allowed to equilibrate to room temperature prior to addition to plates. After addition of Alpha beads to master solutions, all subsequent steps were performed in low light conditions. […] After a 1000-rpm spin-down for 1 minute, 100 nL of the solutions of compounds of the invention in DMSO from stock plates were added by pin transfer using a Janus Workstation (PerkinElmer, USA). The streptavidin-coated donor beads (25 μg/ml final) were added as with previous solution in a 2×, 10 μL volume. Following this addition, the plates were sealed with foil to block light exposure and to prevent evaporation. The plates were spun down again at 1000 rpm for 1 minute. Next, the plates were incubated in the room with the plate reader (for temperature equilibration) for 1 hour prior to reading the assay. Signal is stable for up to 3 hours after donor bead addition.
# [21] = system: lung carcinoma cell line H2171; assay: Cellular IC50 in lung carcinoma cell line H2171; format: cell-based
# Protocol: Cells (e.g., BRD4 dependant cells) were counted and adjusted to 60,000 cells/mL. Using a Biotek EL406, 50 μL of the cells in media were distributed into 384 well white plates from Thermo. Immediately after plating, compounds of the invention in DMSO were distributed to plates. For large plate sets, cells were returned to a 37° C. incubator while not in use. The compounds were added to plates using a 100 nL 384 well pin transfer manifold on a Janus workstation. Stocks were arrayed in 10 point quadruplicate dose response in DMSO stock in 384-well Greiner compound plates. After addition of the compounds, plates were incubated for three days in a 37° C. incubator. Cell viability was read out using ATPlite from Perkin Elmer. Plates were removed from the incubator and brought to room temperature prior to use. Lyophilized powder was resuspended in lysis buffer and diluted 1:2 with DI water. 25 μL of this solution was added to each well using the Biotek liquid handler. Plates were sealed with adherent aluminum seals prior to vortexing and spinning down at 1000 g for 1 minute. Plates were incubated for 15 minutes at room temperature before signal was read on an Envision Plate Reader.
# [22] = biological target: T11, CBP; assay: In vitro AlphaScreen protein binding assay, CBP
# Target sequence in this assay (Q92793 1085-1192 limits assumed): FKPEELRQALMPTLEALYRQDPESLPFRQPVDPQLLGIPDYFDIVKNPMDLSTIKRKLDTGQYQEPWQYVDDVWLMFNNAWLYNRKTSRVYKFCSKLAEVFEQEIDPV
# Protocol: as §1
Compound,Kd [1],Kd [2],Kd [4],Kd [6],Kd [7],Kd [8],Kd [9],Kd [10],Kd [11],Kd [12],Kd [14],Kd [15],Kd [18],further results
"CCNC(=O)C[C@@H]1N=C(c2ccc(Cl)cc2)c2cc(OC)ccc2-n2c(C)nnc21 [I-BET, reference compound]",≥ 40 µM,≥ 40 µM,≥ 40 µM,≥ 40 µM,≥ 40 µM,71 µM,≥ 40 µM,≥ 40 µM,≥ 40 µM,76 µM,≥ 40 µM,≥ 40 µM,≥ 40 µM,Kd [3]: 0.045 µM; Kd [5]: ≥ 40 µM; Kd [13]: 0.16 µM; Kd [16]: ≥ 40 µM; Kd [17]: ≥ 40 µM
"Cc1sc2c(c1C)C(c1ccc(Cl)cc1)=NC(CC(=O)OC(C)(C)C)c1nnc(C)n1-2 (stereo not shown) [JQ1, reference compound]",≥ 40 µM,≥ 40 µM,≥ 40 µM,≥ 40 µM,≥ 40 µM,51 µM,≥ 40 µM,≥ 40 µM,≥ 40 µM,24 µM,≥ 40 µM,≥ 40 µM,≥ 40 µM,
"CCOC(=O)[C@]1(C)N[C@H](c2ccc(-c3c(C)noc3C)cc2)[C@@H]2C(=O)N(CC)C(=O)[C@@H]21 [UMB17, (1R,3S,3aR,6aS)-ethyl 3-(4-(3,5-dimethylisoxazol-4-yl)phenyl)-5-ethyl-1-methyl-4,6-dioxooctahydropyrrolo[3,4-c]pyrrole-1-carboxylate]",,,,,,,,,,,,,,"EC50 [19]: 9.42 µM; IC50 ([20]; BRD4--IC50 (μM), Table 5, biochemical): > 100 µM; IC50 ([20]; BRD4 IC50 (μM), Table 2, AlphaScreen): 122 µM; IC50 ([21]; Homo sapiens, NCI-H2171, Table 2, cellular, lung carcinoma cell line H2171): 55 µM; cellular activity in H2171 ([21]; text b616): show cellular activity in H2171; IC50 [22]: 30 µM"
